Assay results from ChEMBL document CHEMBL1201862, “PubChem BioAssay data set” (2004).
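96-well plates; 48 h exposure; 5 concentrations. Endpoints by linear interpolation between flanking doses. Not reached: highest tested concentration assigned. GI50 = concentration required for 50% inhibition of growth.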 Active and inactive are the calls of the source. Cut-off read from the data, not from the text of the source: active = GI50 up to about 1.1 µM and inactive = higher.

Experiments:
Assay in all cases: NCI-60 cell line screen, 48 h
MOLT-4 = test system: MOLT-4
HCC 2998 = test system: HCC 2998
HCT-116 = test system: HCT-116
NCI-H522 = test system: NCI-H522
SNB-19 = test system: SNB-19
M14 = test system: M14
TK-10 = test system: TK-10
KM12 = test system: KM12
K562 = test system: K562
SF-268 = test system: SF-268
A549 = test system: A549
CCRF-CEM = test system: CCRF-CEM
HOP-92 = test system: HOP-92
786-0 = test system: 786-0
HT-29 = test system: HT-29
SW-620 = test system: SW-620
COLO 205 = test system: COLO 205
OVCAR-8 = test system: OVCAR-8
RPMI-8226 = test system: RPMI-8226
SK-MEL-2 = test system: SK-MEL-2
KM-20L2 = test system: KM-20L2
U-251 = test system: U-251
UACC-62 = test system: UACC-62
SN12C = test system: SN12C
RXF 393 = test system: RXF 393
SR = test system: SR
DMS-114 = test system: DMS-114
SK-MEL-28 = test system: SK-MEL-28
NCI-H226 = test system: NCI-H226
HL-60 = test system: HL-60
DLD-1 = test system: DLD-1
UO-31 = test system: UO-31
EKVX = test system: EKVX
SK-MEL-5 = test system: SK-MEL-5
LOX IMVI = test system: LOX IMVI
CAKI-1 = test system: CAKI-1
SNB-78 = test system: SNB-78
XF498 = test system: XF498
HOP-62 = test system: HOP-62
A498 = test system: A498
DMS-273 = test system: DMS-273
IGROV-1 = test system: IGROV-1
RXF 631 = test system: RXF 631
OVCAR-3 = test system: OVCAR-3
UACC-257 = test system: UACC-257
Malme-3M = test system: Malme-3M
NCI-H460 = test system: NCI-H460
SF-295 = test system: SF-295
NCI-H23 = test system: NCI-H23
OVCAR-5 = test system: OVCAR-5
HCT-15 = test system: HCT-15
ACHN = test system: ACHN
HOP-18 = test system: HOP-18
SK-OV-3 = test system: SK-OV-3
SNB-75 = test system: SNB-75
LXFL 529 = test system: LXFL 529
M19-MEL = test system: M19-MEL

Measured: GI50

CCCCNC(=O)NNC(=O)c1cc(/C=C/c2cccc([N+](=O)[O-])c2)ncn1
87.3 µM: HCT-15
inactive: MOLT-4 > 100 µM | HCC 2998 > 100 µM | HCT-116 20 µM | NCI-H522 > 100 µM | SNB-19 > 100 µM | M14 > 100 µM | TK-10 > 100 µM | KM12 > 100 µM | K562 > 100 µM | SF-268 > 100 µM | A549 > 100 µM | CCRF-CEM > 100 µM | HOP-92 > 100 µM | 786-0 > 100 µM | HT-29 > 100 µM | SW-620 16.7 µM | COLO 205 > 100 µM | OVCAR-8 > 100 µM | RPMI-8226 25.4 µM | SK-MEL-2 > 100 µM | KM-20L2 > 100 µM | U-251 21.1 µM | UACC-62 > 100 µM | SN12C > 100 µM | RXF 393 > 100 µM | SR 34.8 µM | DMS-114 51.3 µM | SK-MEL-28 > 100 µM | NCI-H226 > 100 µM | HL-60 > 100 µM | DLD-1 37.7 µM | UO-31 > 100 µM | EKVX > 100 µM | SK-MEL-5 > 100 µM | LOX IMVI 34.2 µM | CAKI-1 > 100 µM | SNB-78 > 100 µM | XF498 > 100 µM | HOP-62 > 100 µM | A498 > 100 µM | DMS-273 > 100 µM | IGROV-1 > 100 µM | RXF 631 > 100 µM | OVCAR-3 > 100 µM | UACC-257 > 100 µM | Malme-3M > 100 µM | NCI-H460 > 100 µM | SF-295 > 100 µM | NCI-H23 > 100 µM | OVCAR-5 > 100 µM | ACHN > 100 µM | HOP-18 > 100 µM | SK-OV-3 > 100 µM | SNB-75 > 100 µM | LXFL 529 > 10 µM | M19-MEL > 100 µM
